Measured values as given in patent publication EP2524912A1, “Amine derivatives” (Bionomics Limited, priority 2011, dated 2012).

Each molecule was assayed against human Kv1.3 (Homo sapiens, UniProt P22001) (assay: Kv1.3 patch-clamp electrophysiology (planar electrode, whole-cell, steady state current)). Settings: CHO/Kv1.3 stable cell line; steady state current amplitude at end of 500 ms depolarising pulse to +40 mV; values given as ranges; read-out: IC50 (Kv1.3 ephys steady state).
Type: cell-based
Protocol: The inhibition data shown for the compounds of the list below was calculated using the steady state current amplitude at the end of the depolarising pulse in patch clamp evaluations (as described in the Pharmacology Example 2).
The human Kv1.3 construct (Kv1.3/pENTR, clone IOH61428) was purchased from Invitrogen and subcloned into pcDNA 3.2-DEST (Invitrogen). CHO-K1 cells obtained from ATCC (cat #CCL-61) were transfected with the Kv1.3/pcDNA3.2DEST construct and a stable cell line was developed through two rounds of limiting dilution under G418 selection. Positive (Kv1.3 expressing) clones were identified using electrophysiology.
CHO/Kv1.x stable cell lines were grown in a humidified atmosphere at 37 °C, 5% CO2 in T-75 flasks containing F12 Kaighn's medium supplemented with 10% fetal calf serum, 2 mM L-glutamine, 100 units/ml penicillin, 100 µg/ml streptomycin and 500 µg/ml G418 (to maintain selection). CHO/Kv1.1 and CHO/Kv1.5 cells used for patching were transferred to 33 °C for 48 hours prior to use.
Kv1.x currents were measured using a planar electrode version (Nanion Technologies GMBH) of the patch-clamp technique. Whole-cell Kv1.x current transients were evoked by 500 ms depolarising voltage pulses to +40 mV from a holding potential of -80 mV applied at 10 s intervals for Kv1.1 and Kv1.5 and at 30 s intervals for Kv1.3 to allow adequate time for recovery from inactivation. Cells were continuously bathed in a buffered saline solution containing (mM): 160 NaCl, 4.5 KCI, 2 CaCl2, 1 MgCl2, 5 glucose, 10 HEPES, pH 7.4, 290-310 mOsm.Kg^-1. The internal (pipette) solution contained (mM): 10 NaCl, 70 KF, 75 KCI, 2 MgCl2, 10 HEPES, 10 EGTA, pH 7.2, 290-310 mOsm.Kg^-1. Series resistance compensation (60-80%) was applied when the peak current amplitude exceeded 2 nA.
Compounds were initially dissolved in DMSO to 10 mM. After further dilution in DMSO, compounds were finally diluted in bath solution 1/200 (to give a final DMSO concentration of 0.5%) and applied directly to the recording chamber. Compounds were added at increasing concentrations allowing ample time for steady state block to be achieved between each concentration. Each compound was tested at 5-6 different concentrations on 2-3 cells. IC50 values can be determined by fitting the average normalised reduction of either the current integral or the steady state current amplitude at the end of the depolarising pulse obtained at each compound concentration to the Hill equation. The IC50 data reported herein is based on the steady state calculation.

Sequence of human Kv1.3 (P22001 whole entry): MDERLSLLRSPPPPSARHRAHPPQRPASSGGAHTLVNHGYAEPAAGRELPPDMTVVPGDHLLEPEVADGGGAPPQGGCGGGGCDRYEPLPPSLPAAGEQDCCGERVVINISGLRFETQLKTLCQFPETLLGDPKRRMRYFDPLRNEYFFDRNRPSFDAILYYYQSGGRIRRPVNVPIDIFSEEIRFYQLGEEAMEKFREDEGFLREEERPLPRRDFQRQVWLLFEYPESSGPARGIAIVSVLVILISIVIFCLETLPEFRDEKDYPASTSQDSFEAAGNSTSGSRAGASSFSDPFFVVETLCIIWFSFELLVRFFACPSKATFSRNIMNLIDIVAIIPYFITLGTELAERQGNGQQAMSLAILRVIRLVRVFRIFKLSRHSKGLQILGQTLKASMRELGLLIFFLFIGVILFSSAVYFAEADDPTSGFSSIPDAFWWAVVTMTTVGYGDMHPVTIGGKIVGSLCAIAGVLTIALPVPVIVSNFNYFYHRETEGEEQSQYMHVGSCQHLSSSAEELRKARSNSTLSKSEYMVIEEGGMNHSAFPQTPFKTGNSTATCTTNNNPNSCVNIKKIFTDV

SMILES | IC50
CC(CC(=O)N(Cc1ccccn1)C(c1ccc(Cl)cc1)C1CC1)S(=O)(=O)c1ccc(F)cc1 (stereo not drawn) [Example 76, N-[(4-chlorophenyl)(cyclopropyl)methyl]-3-[(4-fluorophenyl)sulfonyl]-N-(pyridin-2-ylmethyl)butanamide] | 50 to 200 nM
CC1(C)Oc2ccc(C(C3CC3)N(Cc3ccccn3)C(=O)COc3ccc(F)cc3)cc2S1(=O)=O (stereo not drawn) [Example 77, N-[cyclopropyl(2,2-dimethyl-3,3-dioxido-1,3-benzoxathiol-5-yl)methyl]-2-(4-fluorophenoxy)-N-(pyridin-2-ylmethyl)acetamide] | 50 to 200 nM
CC(CC(=O)N(Cc1ccccn1)C(C)c1nncn1C)c1ccc(F)cc1 (stereo not drawn) [Example 78, 3-(4-fluorophenyl)-N-[1-(4-methyl-4H-1,2,4-triazol-3-yl)ethyl]-N-(pyridin-2-ylmethyl)butanamide] | 200 to 1000 nM
